These results are taken from paper PMC11858653, “Design, Synthesis and Bioactive Evaluation of Topo I/c-MYC Dual Inhibitors to Inhibit Oral Cancer via Regulating the PI3K/AKT/NF-κB Signaling Pathway” (Molecules, 2025).

As usually defined, the IC50 is the concentration at which inhibition is half-maximal.

In one test the test system is Cal27. Nature of the test: MTT antiproliferative assay, Cal27. Type of test: cell-based, human. The note with it: mean ± SD. As to the method: (§1) Having evaluated their Topo I inhibitory activity, the antiproliferative activity of the target compounds against some common human cancer cell lines (NCI-H460, A549, ACHN, Cal27 and MGC-803) and one normal cell line (SV-HUC-1) was tested via an MTT assay. TPT, the first Topo I inhibitor approved in clinics, and cisplatin (CDDP), a commonly selected anticancer drug for treating head and neck malignancies, were used as the positive controls.
(§2) Human oral cancer Cal27 cells were seeded in 96-well plates and incubated overnight in 180 μL of medium containing 10% Fetal Bovine Serum (Gibco, San Francisco, CA, USA). […] Then, 10 μL of 5 mg/mL MTT solution was added to each well and incubated at 37 °C for 4 h. After 4 h of incubation at 37 °C, the MTT-containing medium was removed and DMSO was added to each well and the absorbance at 570 nm and 630 nm was measured using a microplate reader (CYTATION 3, Burton, Westwood, NJ, USA). Survival/% = (mean OD of experimental group/mean OD of control group) × 100%. Each test was repeated at least three times.

The subject of the next test is NCI-H460. Description: MTT antiproliferative assay, NCI-H460. The note with it: mean ± SD. Type of test: cell-based, human. The method, then:
as §1, §2
(Tetrazolium assays rely on reduction of a dye to a coloured formazan, in cell work by metabolically active cells.)

The next test has as its system SV-HUC-1. Description: MTT assay, normal cell line SV-HUC-1. The class given is cell-based. The note with it: SV-HUC1, 48 h, mean ± SD. As to the method:
as §1, §2

The subject of a further test is MGC-803. Description: MTT antiproliferative assay, MGC-803. The class given is cell-based, human. The note with it: mean ± SD. As to the method: as §1, §2
The next test concerns the target T1, Topo I (Homo sapiens, UniProt P11387).
T1 sequence (P11387 1-765): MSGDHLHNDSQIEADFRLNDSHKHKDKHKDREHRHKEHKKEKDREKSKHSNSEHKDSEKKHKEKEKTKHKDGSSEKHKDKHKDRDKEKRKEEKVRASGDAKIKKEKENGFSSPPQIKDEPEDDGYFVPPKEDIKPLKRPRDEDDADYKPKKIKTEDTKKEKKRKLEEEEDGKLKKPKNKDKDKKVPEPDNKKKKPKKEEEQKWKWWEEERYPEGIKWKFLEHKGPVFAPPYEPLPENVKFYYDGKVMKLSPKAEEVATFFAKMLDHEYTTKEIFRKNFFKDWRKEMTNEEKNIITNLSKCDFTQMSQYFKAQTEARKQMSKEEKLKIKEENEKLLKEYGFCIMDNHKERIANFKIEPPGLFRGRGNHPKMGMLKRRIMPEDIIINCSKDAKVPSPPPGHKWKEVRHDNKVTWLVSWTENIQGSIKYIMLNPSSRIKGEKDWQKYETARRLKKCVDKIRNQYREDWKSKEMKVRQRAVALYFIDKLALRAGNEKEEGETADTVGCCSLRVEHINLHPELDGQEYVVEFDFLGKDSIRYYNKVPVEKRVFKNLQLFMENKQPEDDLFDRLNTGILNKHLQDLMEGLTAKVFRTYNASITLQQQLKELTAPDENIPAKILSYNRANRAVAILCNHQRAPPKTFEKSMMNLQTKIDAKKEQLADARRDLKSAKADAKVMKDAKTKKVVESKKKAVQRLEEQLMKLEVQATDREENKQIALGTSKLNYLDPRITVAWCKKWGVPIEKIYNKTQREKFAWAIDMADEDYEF
Nature of the test: Topo I inhibitory activity, agarose gel electrophoresis (pBR322). The note with it: 20 μM. The class given is biochemical. The method, then:
In this assay, 250 ng of pBR322 plasmid DNA, different concentrations of the compounds to be tested, 0.1% BSA 1 μL, 10× Topo I buffer, Topo I and add 1× TAE buffer were mixed to a final volume of 20 μL. The reaction was carried out for 30 min at 37 °C in a water bath. After the reaction was terminated, 4 μL of each of the 6× DNA Sampling Buffers were added to the gel. The pBR322 plasmid DNA alone was used as a negative control, and camptothecin was used as a positive control. Finally, the samples were loaded onto the gels and electrophoresed for about 1.5 h. After electrophoresis, the gel blocks were incubated in 1 mg/L ethidium bromide (EB) for 30 min and then visualized on the gel system.

The subject of another test is A549. Nature of the test: MTT antiproliferative assay, A549. The class given is cell-based, human. The note with it: mean ± SD. As to the method:
as §1, §2

The subject of a further test is ACHN. Nature of the test: MTT antiproliferative assay, ACHN. The class given is cell-based, human. The note with it: 48 h, mean ± SD. As to the method:
as §1, §2

Another test has as its system Cal27 cells. Nature of the test: MTT cell survival with autophagy inhibitor CQ. The class given is cell-based, human. The note with it: Cal27, 20 μM alone. The method, then:
Meanwhile, to further confirm that compound 7be could induce autophagic death in Cal27 cells, we used a classical autophagy inhibitor, chloroquine (CQ), to evaluate the role of autophagy in compound 7be-mix-induced cell death.
Human oral cancer Cal27 cells were seeded in 96-well plates and incubated overnight in 180 μL of medium containing 10% Fetal Bovine Serum (Gibco, San Francisco, CA, USA). On the following day, compounds at final concentrations of 2.5, 5, 10 and 20 μM were added to each well and incubated for 48 h. Then, 10 μL of 5 mg/mL MTT solution was added to each well and incubated at 37 °C for 4 h. After 4 h of incubation at 37 °C, the MTT-containing medium was removed and DMSO was added to each well and the absorbance at 570 nm and 630 nm was measured using a microplate reader (CYTATION 3, Burton, Westwood, NJ, USA). Survival/% = (mean OD of experimental group/mean OD of control group) × 100%. Each test was repeated at least three times.

Test [1] has as its system human oral cancer Cal27 xenograft tumor. Description: In vivo antitumor activity, Cal27 xenograft. Set-up: species or system BALB/c nude mice. The note with it: 2 mg/kg i.p. once every other day, 21 days. As to the method: Nude mouse organ and tumor tissues fixed with neutral formalin solution were paraffin-embedded according to the conventional processing method. Sections were cut to a thickness of approximately 5 μm, placed on glass slides and dewaxed in an oven at 60 °C, stained for H&E and immunohistochemistry and finally visualized with the Cytation 5 imaging system.
For this assay, 130 SPF-grade BALB/c mice (female, 4–6 weeks old, 18–20 g) were obtained from Chang Zhou Cavens Laboratory Animal Ltd. (Changzhou, China). The in vivo activity experiments were commissioned by Nanjing OG Pharmaceuticals, Co., Ltd. (Nanjing, China) All mice were housed in plastic cages, fed, and watered under standard conditions and air filtration (22 ± 2 °C; 12 h light/dark cycles). Under aseptic conditions, human oral cancer Cal27 cells were inoculated subcutaneously in the right axilla of BALB/c nude mice. When the tumors had grown to about 85 mm^3, 24 […] mice with good growth status and good homogeneity of tumor size were selected and randomly divided into the following four groups of six mice each: (1) the model group; (2) the low-dose group; (3) the high-dose group; and (4) the positive drug group. The drug dose in the low-dose group was 10 mg/kg, which was injected intraperitoneally once every other day, for the duration of 21 days of administration; the drug dose in the high-dose group was 20 mg/kg, which was injected intraperitoneally once every other day, for the duration of 21 days of administration; and the drug dose in the cisplatin group was 2 mg/kg, which was injected intraperitoneally once every other day, for the duration of 21 days of administration. Normal tissues of the heart, liver, spleen, lung and kidney and half of the tumor tissues were fixed with 4% formalin solution and embedded in paraffin for histological analysis; the other half of the tumor tissues were preserved in liquid nitrogen, and the supernatant was extracted after milling the tissues and detected by Western blot.

With `Cc1cc(C)c2c(n1)S(=O)(=O)c1c-2nc(NCCN2CCOCC2)c2ccccc12` [7bd, 7,9-Dimethyl-5-((2-morpholinoethyl)amino)pyrido[3′,2′:4,5]thieno[3,2-c]isoquinoline 11,11-dioxide], the IC50 is > 100 µM in the test with Cal27 (Homo sapiens, CAL-27, 48 h); > 100 µM in the test on NCI-H460 (Homo sapiens, NCI-H460, 48 h); > 100 µM in the test on SV-HUC-1; > 100 µM in the test on MGC-803 (Homo sapiens, MGC-803, 48 h); > 100 µM in the test on A549 (Homo sapiens, A549, 48 h); > 100 µM in the test with ACHN (Homo sapiens, ACHN). Besides, the “Topo I inhibitory activity (in words)” value at Topo I is “weak Topo I activity”.
Regarding `Cc1cc(C)c2c(n1)S(=O)(=O)c1c-2nc(NCCN(C)C)c2ccccc12` [7ba, 5-((2-(Dimethylamino)ethyl)amino)-7,9-dimethylpyrido[3′,2′:4,5]thieno[3,2-c]isoquinoline 11,11-dioxide], the IC50 is 4.99 ± 2 µM in the test on Cal27 (Homo sapiens, CAL-27, 48 h); 6.68 ± 1.5 µM in the test with NCI-H460 (Homo sapiens, NCI-H460, 48 h); 4.66 ± 1.69 µM in the test with SV-HUC-1; 6.33 ± 0.75 µM with MGC-803 (Homo sapiens, MGC-803, 48 h); 7.03 ± 1.95 µM with A549 (Homo sapiens, A549, 48 h); 4.59 ± 1.68 µM in the test on ACHN (Homo sapiens, ACHN). Further, at Topo I, the “Topo I inhibitory activity (in words)” value is listed as “potent Topo I activity”.
Turning to `CN(C)CCCNc1nc2c(c3ccccc13)S(=O)(=O)c1ncccc1-2` [7af, 5-((3-(Dimethylamino)propyl)amino)pyrido[3′,2′:4,5] thieno[3,2-c]isoquinoline 11,11-dioxide], the half-maximal inhibitory concentration (IC50) was 10.6 ± 0.96 µM in the test on Cal27 (Homo sapiens, CAL-27, 48 h); 64.5 ± 2.88 µM in the test on NCI-H460 (Homo sapiens, NCI-H460, 48 h); > 100 µM with SV-HUC-1; 9.84 ± 1.32 µM in the test with MGC-803 (Homo sapiens, MGC-803, 48 h); 13.8 ± 2.53 µM in the test on A549 (Homo sapiens, A549, 48 h); 14.7 ± 0.15 µM in the test with ACHN (Homo sapiens, ACHN). Also, the “nicked DNA in the lane (DNA breakage)” value on Topo I is recorded as “nicked DNA could be clearly observed”.
For the compound `CCN(CC)CCCC(C)Nc1ccnc2cc(Cl)ccc12` (stereo not shown) [CQ, chloroquine], in the test with Cal27 cells (24 h), the “cell survival rate versus control group” value is given as “not significantly different”. Moreover, the cell survival rate entry in the test on Cal27 cells (48 h) is listed as “more than 80%”.
On to `[NH2][Pt]([NH2])([Cl])[Cl]` [CDDP, cisplatin, reference compound], for which the 50% inhibitory concentration (IC50) came to 8.81 ± 1.73 µM in the test on Cal27 (48 h); 12.2 ± 1.01 µM in the test on NCI-H460 (48 h); 12.3 ± 0.8 µM in the test with MGC-803 (48 h); 8.69 ± 1.05 µM in the test with A549 (48 h); 12.4 ± 1.31 µM in the test with ACHN. For the same compound, the “relative tumor proliferation rate” value in test [1] was 39.8%. Also, the “tumor inhibition rate / tumor growth inhibition (TGI)” value worked out at 59.44% in test [1] and 59.4% in [1] (listed as cisplatin).
